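Compound exposure: 48 hours, 5 concentrations, 96-well plates. The concentration for full growth arrest is given as TGI.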
What was measured:
Assay in all cases: inhibition of tumour cell growth, NCI panel, 48 h
UACC-62 melanoma = test system: UACC-62 melanoma
U251 CNS = test system: U251 CNS
NCI-H226 lung = test system: NCI-H226 lung
MDA-MB-231 breast = test system: MDA-MB-231 breast
ACHN renal = test system: ACHN renal
DU-145 prostate = test system: DU-145 prostate
HOP-62 NSCLC = test system: HOP-62 NSCLC
SK-OV-3 ovarian = test system: SK-OV-3 ovarian
MDA-MB-435 = test system: MDA-MB-435
A549 NSCLC = test system: A549 NSCLC
NCI-H23 lung = test system: NCI-H23 lung
HT29 colon = test system: HT29 colon
SK-MEL-5 melanoma = test system: SK-MEL-5 melanoma
CAKI-1 renal = test system: CAKI-1 renal
OVCAR-5 ovarian = test system: OVCAR-5 ovarian
BT-549 breast = test system: BT-549 breast
SK-MEL-2 melanoma = test system: SK-MEL-2 melanoma
RPMI-8226 leukemia = test system: RPMI-8226 leukemia
TK-10 renal = test system: TK-10 renal
UACC-257 melanoma = test system: UACC-257 melanoma
CCRF-CEM leukemia = test system: CCRF-CEM leukemia
HCT-15 colon = test system: HCT-15 colon
COLO 205 colon = test system: COLO 205 colon
KM12 colon = test system: KM12 colon
UO-31 renal = test system: UO-31 renal
RXF 393 renal = test system: RXF 393 renal
NCI-H460 lung = test system: NCI-H460 lung
SF-539 CNS = test system: SF-539 CNS
HL-60(TB) leukemia = test system: HL-60(TB) leukemia
SNB-19 CNS = test system: SNB-19 CNS
PC-3 prostate = test system: PC-3 prostate
OVCAR-8 ovarian = test system: OVCAR-8 ovarian
HOP-92 NSCLC = test system: HOP-92 NSCLC
SW-620 colon = test system: SW-620 colon
NCI-H522 lung = test system: NCI-H522 lung
786-0 renal = test system: 786-0 renal
OVCAR-4 ovarian = test system: OVCAR-4 ovarian
MALME-3M melanoma = test system: MALME-3M melanoma
NCI/ADR-RES ovarian = test system: NCI/ADR-RES ovarian
SNB-75 CNS = test system: SNB-75 CNS
T-47D breast = test system: T-47D breast
EKVX NSCLC = test system: EKVX NSCLC
MOLT-4 leukemia = test system: MOLT-4 leukemia
MDA-N = test system: MDA-N
OVCAR-3 ovarian = test system: OVCAR-3 ovarian
HS 578T breast = test system: HS 578T breast
A498 renal = test system: A498 renal
SF-268 CNS = test system: SF-268 CNS
K-562 leukemia = test system: K-562 leukemia
IGROV1 ovarian = test system: IGROV1 ovarian
LOX IMVI melanoma = test system: LOX IMVI melanoma
SF-295 CNS = test system: SF-295 CNS
HCT-116 colon = test system: HCT-116 colon
M14 melanoma = test system: M14 melanoma
SR leukemia = test system: SR leukemia
SN12C renal = test system: SN12C renal
MCF7 breast = test system: MCF7 breast
SK-MEL-28 melanoma = test system: SK-MEL-28 melanoma

Measured: TGI

O=C(O)C1C2C=CC(O2)C1C(=O)NCc1ccccn1 (configuration not stated)
> 100 µM: all assays above

NC(=Nc1c([N+](=O)[O-])cnc2ccccc12)N1CCOCC1
not listed: UACC-257 melanoma | RXF 393 renal | HOP-92 NSCLC | MALME-3M melanoma
> 100 µM: all other assays above

Source: PubChem BioAssay (NCI)
